Data from patent US12428402B2, “Resmetirom crystal, preparation method for same, and uses thereof” (CRYSTAL PHARMACEUTICAL (SUZHOU) CO., LTD., priority 2019, dated 2025).
Converted amounts (≈) assume the structure as drawn. “And” between values parts separate entries of the source, which are not always exact repeats. Equal values may be shown once. “Also recorded” adds a separate entry of the source.

Experiments:
Format in all cases: physicochemical
[1] = Kinetic solubility in SGF; conditions: for 1 hour Concentration: equilibrated 1 h
Method: When solubility test is used to predict the in vivo performance of a drug, it is critical to simulate in vivo conditions as closely as possible. SGF can be used to simulate the condition in vivo and predict the effects of eating, thus solubility in this medium is closer to that in vivo.
Approximately 5-20 mg of Form CSIV and 5-20 mg Form CSV of the present disclosure were suspended into 2.0 mL of SGF to get suspensions. After equilibrated for 1 h and 24 h, concentrations (μg/mL) of these solutions were measured by UPLC.

[2] = Physical and chemical stability on storage (XRPD, HPLC)
Method: A certain amount of Form CSIV of the present disclosure was sealed up and stored under different conditions of 25° C./60% RH, 40° C./75% RH, and 60° C./75% RH. Crystalline form and chemical purity were checked by XRPD and HPLC, respectively.
A certain amount of Form CSV of the present disclosure was stored under different conditions of 40° C./75% RH and 60° C./75% RH in open and sealed dishes. Crystalline form and chemical purity were checked by XRPD and HPLC, respectively.

[3] = Hygroscicity by dynamic vapor sorption (DVS); conditions: for hygroscopicity class / weight gain: 25° C./80% RH; for hygroscopicity class: Chinese Pharmacopoeia definition; for weight gain: DVS; for crystalline state before and after DVS: cycle of 0-95% RH
Method: Dynamic Vapor Sorption (DVS) was measured via an SMS (Surface Measurement Systems Ltd.) intrinsic DVS instrument. Typical Parameters for DVS test are as follows: • Temperature: 25° C. • Gas and flow rate: N2, 200 mL/min • RH range: 0% RH to 95% RH
Dynamic vapor sorption (DVS) analyzer was applied to test hygroscopicity of Form CSIV and Form CSV with certain amount of samples. The weight gains at each relative humidity were recorded in a cycle of 0-95% RH. […] The weight gain of Form CSV under 25° C./80% RH is 0.13%. […] The DVS curve of Form CSIV and Form CSV are shown in FIG. 9 and FIG. 10, respectively.
Description and definition of hygroscopicity (general notice 9103 drug hygroscopicity test guidelines in 2020 edition of Chinese Pharmacopoeia, test at 25° C.±1° C., 80% RH±2% RH. The definition of hygroscopicity in the 9th European Pharmacopoeia 5.11 is consistent with the Chinese Pharmacopoeia). • deliquescent: Sufficient water is absorbed to form a solution; • very hygroscopic: Increase in mass is equal to or greater than 15%; • hygroscopic: Increase in mass is less than 15% and equal to or greater than 2%; • slightly hygroscopic: Increase in mass is less than 2% and equal to or greater than 0.2%. • non hygroscopic or almost non hygroscopic: Increase in mass is less than 0.2%.

[4] = Compressibility (manual tablet press, tensile strength); conditions: for Diameter / Hardness / Thickness: 80 mg, φ6 mm round tooling, 10 kN, 24 h at room temperature; for Diameter / Hardness / Thickness / Tensile strength: tablets 1 and 2; for Average tensile strength / Tensile strength: T=2H/πDL
Method: ENERPAC manual tablet press was used for compression. 80 mg of Form CSIV and 80 mg of Form I were weighed and added into the dies of a φ6 mm round tooling, compressed at 10 kN manually, then stored at room temperature for 24 h. Diameter (D) and thickness (L) were tested with caliper. When elastic recovery is complete, hardness (H) was tested with an intelligent tablet hardness tester. Tensile strength of the powder was calculated with the following formula: T=2H/πDL. Under a certain force, the greater the tensile strength, the better the compressibility.

[5] = Physical stability upon grinding (XRPD); conditions: ground manually for 5 minutes in a mortar
Method: Form CSV and Form I were grounded manually for 5 minutes in a mortar. Crystalline forms before and after grinding were checked by XRPD. […] Compared with Form I, Form CSV has better physical stability upon grinding.

[6] = 40° C./75% RH (open), one month
[7] = 40° C./75% RH (sealed), one month
[8] = 60° C./75% RH (sealed), one week

CC(C)c1cc(Oc2c(Cl)cc(-n3nc(C#N)c(=O)[nH]c3=O)cc2Cl)n[nH]c1=O [Form CSIV, 2-(3,5-dichloro-4-((5-isopropyl-6-oxo-1,6-dihydropyridazin-3-yl)oxy)phenyl)-3,5-dioxo-2,3,4,5-tetrahydro-1,2,4-triazine-6-carbonitrile]
1 hour Concentration ([1]; UPLC): 11.7 µg/mL
solubility relative to that of Form I ([1]; equilibrated 1 hour): 10.6 times
solubility relative to that of Form I ([1]; equilibrated 24 hours): 5.0 times
solubility thermodynamic at 24 h ([1]; simulated gastric fluid, thermodynamic from solid, equilibrated 24 h, UPLC, read-out: 24 hours Concentration): 5.5 µg/mL (≈ 12.6 µM)
time for which the form is stable / crystalline state doesn't change ([2]; 25° C./60% RH sealed): at least 6 months
Crystalline form ([2]; 25° C./60% RH sealed, 6 months): Form CSIV
time for which the form is stable / crystalline state doesn't change ([2]; 40° C./75% RH sealed): at least 6 months
Crystalline form ([2]; 40° C./75% RH sealed, 6 months): Form CSIV
Purity ([2]; 40° C./75% RH sealed, 6 months): 99.76%
time for which crystalline state doesn't change ([2]; 60° C./75% RH sealed): at least 1 month
time for which the form is stable ([2]; 60° C./75% RH sealed, in words): at least one month
Crystalline form ([2]; 60° C./75% RH sealed, one month): Form CSIV
Crystalline form ([2]; Initial): Form CSIV
Purity ([2]; Initial): 99.80%
hygroscopicity class [3]: slightly hygroscopic (Increase in mass is less than 2% and equal to or greater than 0.2%)
weight gain [3]: 0.58%
crystalline state before and after DVS [3]: remains unchanged before and after DVS
Diameter [4]: 6.03 mm and 6.04 mm
Hardness [4]: 28.3 kg and 27.7 kg
Thickness [4]: 2.12 mm
Average tensile strength ([4]; compressed at 10 kN): 1.40 MPa
Tensile strength ([4]; compressed at 10 kN): 1.41 MPa and 1.38 MPa
crystalline state before and after tableting ([4]; compressed at 10 kN, XRPD): remains unchanged before and after tableting

CC(C)c1cc(Oc2c(Cl)cc(-n3nc(C#N)c(=O)[nH]c3=O)cc2Cl)n[nH]c1=O [Form CSV, 2-(3,5-dichloro-4-((5-isopropyl-6-oxo-1,6-dihydropyridazin-3-yl)oxy)phenyl)-3,5-dioxo-2,3,4,5-tetrahydro-1,2,4-triazine-6-carbonitrile]
1 hour Concentration ([1]; UPLC): 7.8 µg/mL
solubility relative to that of Form I ([1]; equilibrated 1 hour): 7.1 times
24 hours Concentration ([1]; equilibrated 24 h, UPLC): 9.6 µg/mL
solubility relative to that of Form I ([1]; equilibrated 24 hours): 8.7 times
Crystalline form [2, 6]: Form CSV
Purity [2, 6]: 99.81%
Crystalline form [2, 7]: Form CSV
Purity [2, 7]: 99.85%
chemical purity during storage ([2]; 40° C./75% RH one month, 60° C./75% RH one week): above 99.8%
time for which the form is stable ([2]; 40° C./75% RH open and sealed dishes, in words): at least one months
time for which crystalline state doesn't change ([2]; 40° C./75% RH sealed, in words): at least one month
Crystalline form ([2]; 60° C./75% RH (open), one week): Form CSV
Purity ([2]; 60° C./75% RH (open), one week): 99.86%
Crystalline form [2, 8]: Form CSV
Purity [2, 8]: 99.87%
time for which the form is stable / crystalline form doesn't change ([2]; 60° C./75% RH open and sealed, in words): at least one week
Crystalline form ([2]; Initial): Form CSV
crystalline state after grinding [5]: does not change before and after grinding; also recorded: doesn't change after grinding
hygroscopicity class [3]: non hygroscopic or almost non-hygroscopic
weight gain [3]: 0.13%
crystalline state before and after DVS [3]: remains unchanged before and after DVS

CC(C)c1cc(Oc2c(Cl)cc(-n3nc(C#N)c(=O)[nH]c3=O)cc2Cl)n[nH]c1=O [Form I, 2-(3,5-dichloro-4-((5-isopropyl-6-oxo-1,6-dihydropyridazin-3-yl)oxy)phenyl)-3,5-dioxo-2,3,4,5-tetrahydro-1,2,4-triazine-6-carbonitrile, reference compound]
crystalline state after grinding [5]: almost transform into amorphous after grinding; also recorded: transforms into amorphous after grinding
Diameter [4]: 6.01 mm and 6.11 mm
Hardness [4]: 8.7 kg and 7.9 kg
Thickness [4]: 2.11 mm and 2.00 mm
Average tensile strength ([4]; compressed at 10 kN): 0.43 MPa
Tensile strength ([4]; compressed at 10 kN): 0.44 MPa and 0.41 MPa
